Among the data in patent US20250064941A1, “SIGLEC LIGANDS, CONJUGATES, AND METHODS OF USE THEREOF” (Osprey Biopharmaceuticals, Inc., priority 2023, published 2025) are Kd values, retold here.

Assay [1] concerns the target T1, mouse Siglec-2-Fc-Avi (CD22) (Mus musculus, UniProt P35329).
T1 construct: made in house
T1 sequence (P35329 22-708 limits assumed): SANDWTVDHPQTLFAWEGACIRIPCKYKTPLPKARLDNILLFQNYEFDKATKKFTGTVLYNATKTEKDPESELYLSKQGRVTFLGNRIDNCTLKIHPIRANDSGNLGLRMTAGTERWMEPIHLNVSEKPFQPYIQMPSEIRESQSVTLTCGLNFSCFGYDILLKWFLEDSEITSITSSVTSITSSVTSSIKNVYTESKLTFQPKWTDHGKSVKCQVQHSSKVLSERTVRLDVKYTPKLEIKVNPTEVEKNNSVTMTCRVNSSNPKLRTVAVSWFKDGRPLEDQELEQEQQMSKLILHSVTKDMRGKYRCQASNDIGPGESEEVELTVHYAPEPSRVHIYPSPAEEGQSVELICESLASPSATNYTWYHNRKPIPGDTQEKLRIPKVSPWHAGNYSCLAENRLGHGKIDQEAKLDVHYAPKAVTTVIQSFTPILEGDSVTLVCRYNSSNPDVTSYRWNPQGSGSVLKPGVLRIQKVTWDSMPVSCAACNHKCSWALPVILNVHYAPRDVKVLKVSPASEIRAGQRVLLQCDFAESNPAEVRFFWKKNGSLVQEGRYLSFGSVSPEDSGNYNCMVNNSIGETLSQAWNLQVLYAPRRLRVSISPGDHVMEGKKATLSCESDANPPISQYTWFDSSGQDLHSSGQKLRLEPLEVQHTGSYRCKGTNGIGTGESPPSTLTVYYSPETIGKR
As to the kind of experiment: SPR binding affinity to mouse CD22. As to conditions: steady-state analysis. Summed up:
(§1)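 Native sialic acid residues are removed from the receptor enzymatically (4 hours at 37° C.) prior to streptavidin capture of the biotinylated protein. Ligand compounds then flow over in HEPES-buffered saline, pH 7.5, containing 0.05% Tween-20 and 1% DMSO, and binding is evaluated at steady state.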
For orientation: Surface plasmon resonance follows binding to a sensor surface in real time, without labels.

The target of assay [2] is T2, human Siglec-2/CD22 protein (Homo sapiens, UniProt P20273).
T2 construct: purchased Acro Biosystems SI2-H82E3
T2 sequence (P20273 20-847): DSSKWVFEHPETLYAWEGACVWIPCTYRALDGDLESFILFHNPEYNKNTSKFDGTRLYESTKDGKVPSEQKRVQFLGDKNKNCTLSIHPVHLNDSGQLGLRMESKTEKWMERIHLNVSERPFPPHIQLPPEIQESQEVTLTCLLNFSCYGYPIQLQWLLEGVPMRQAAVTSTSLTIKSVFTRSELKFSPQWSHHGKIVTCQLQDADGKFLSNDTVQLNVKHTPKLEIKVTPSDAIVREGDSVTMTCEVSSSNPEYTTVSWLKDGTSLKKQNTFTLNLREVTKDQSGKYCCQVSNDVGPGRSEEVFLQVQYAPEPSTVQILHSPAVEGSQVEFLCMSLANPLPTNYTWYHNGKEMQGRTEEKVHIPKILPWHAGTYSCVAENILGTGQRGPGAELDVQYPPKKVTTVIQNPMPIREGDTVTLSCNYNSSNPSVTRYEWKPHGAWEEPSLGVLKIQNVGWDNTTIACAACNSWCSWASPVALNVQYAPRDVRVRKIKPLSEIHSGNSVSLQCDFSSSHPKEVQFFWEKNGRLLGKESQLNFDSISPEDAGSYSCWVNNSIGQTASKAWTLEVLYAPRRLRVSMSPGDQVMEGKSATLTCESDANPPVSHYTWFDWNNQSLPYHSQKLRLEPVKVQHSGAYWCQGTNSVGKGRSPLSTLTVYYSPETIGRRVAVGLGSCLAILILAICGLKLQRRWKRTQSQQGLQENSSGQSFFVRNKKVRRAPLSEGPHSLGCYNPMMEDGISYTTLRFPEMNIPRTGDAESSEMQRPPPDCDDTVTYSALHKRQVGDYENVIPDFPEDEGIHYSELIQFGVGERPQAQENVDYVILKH
As to the kind of experiment: SPR binding affinity to human CD22. As to conditions: steady-state analysis. The essentials: as §1

For assay [3], the target named is cynomolgus Siglec-2/CD22 (Macaca fascicularis, UniProt A0A2K5WCZ6). As to the kind of experiment: biochemical. As to conditions: SPR, steady-state analysis; read-out: Affinity cyno CD22. The assay is classed as binding. Summed up: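 SPR with desialylated (SialoExo, 4 h, 37° C.) cynomolgus CD22 amine-coupled to a CM5 chip. Running buffer 10 mM HEPES, 150 mM NaCl, 0.05% Tween-20, pH 7.5, 1% DMSO, with solvent correction; 120 s dissociation. Affinities from steady-state analysis.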
Sequence of cynomolgus Siglec-2/CD22 (A0A2K5WCZ6 entry or part of it): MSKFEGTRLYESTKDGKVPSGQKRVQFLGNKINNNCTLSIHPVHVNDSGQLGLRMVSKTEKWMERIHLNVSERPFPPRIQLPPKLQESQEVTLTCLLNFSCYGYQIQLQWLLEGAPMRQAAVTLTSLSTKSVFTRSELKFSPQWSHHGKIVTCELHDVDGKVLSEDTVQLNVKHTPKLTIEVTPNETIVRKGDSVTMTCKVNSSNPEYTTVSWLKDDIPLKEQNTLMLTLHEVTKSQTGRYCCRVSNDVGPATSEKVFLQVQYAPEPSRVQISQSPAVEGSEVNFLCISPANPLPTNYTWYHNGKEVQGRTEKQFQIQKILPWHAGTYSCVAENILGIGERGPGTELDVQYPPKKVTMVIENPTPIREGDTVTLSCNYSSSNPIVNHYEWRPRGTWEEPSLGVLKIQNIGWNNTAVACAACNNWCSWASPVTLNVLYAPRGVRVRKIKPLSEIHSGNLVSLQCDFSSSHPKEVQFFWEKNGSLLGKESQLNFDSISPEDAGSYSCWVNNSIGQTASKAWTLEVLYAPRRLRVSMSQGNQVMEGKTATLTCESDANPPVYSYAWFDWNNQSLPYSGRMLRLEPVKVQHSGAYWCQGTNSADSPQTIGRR

On to `C#CCOCCCCCCO[C@]1(C(=O)O)C[C@H](O)[C@@H](NC(=O)CN)[C@H]([C@H](O)[C@H](O)CNC(=O)Cc2ccc(Cl)cc2)O1` [Compound 184, (2R,4S,5R,6R)-5-(2-aminoacetamido)-6-((1R,2R)-3-(2-(4-chlorophenyl)acetamido)-1,2-dihydroxypropyl)-4-hydroxy-2-((6-(prop-2-yn-1-yloxy)hexyl)oxy)tetrahydro-2H-pyran-2-carboxylic acid], for which the Kd in assay [1], in assay [2] and in assay [3] was 1000 to 10000 nM throughout.
On to `C#CCOCCOCCO[C@]1(C(=O)O)C[C@H](O)[C@@H](NC(=O)CO)[C@H]([C@H](O)[C@H](O)CNC(=O)Cc2ccc3c(c2)CC(=O)N3)O1` [Compound 11, (2R,4S,5R,6R)-6-((1R,2R)-1,2-dihydroxy-3-(2-(2-oxoindolin-5-yl)acetamido)propyl)-4-hydroxy-5-(2-hydroxyacetamido)-2-(2-(2-(prop-2-yn-1-yloxy)ethoxy)ethoxy)tetrahydro-2H-pyran-2-carboxylic acid], for which the Kd in assay [1] was > 10000 nM; in assay [2] it was 1000 to 10000 nM; in assay [3], > 10000 nM.
With `CC(=O)NCCOCCOCCOCCOCCC(=O)NCCOCCOCCO[C@]1(C(=O)O)C[C@H](O)[C@@H](NC(C)=O)[C@H]([C@H](O)[C@H](O)CNC(=O)Cc2ccc(Cl)cc2)O1` [Compound 274, (2R,4S,5R,6R)-5-acetamido-6-((1R,2R)-3-(2-(4-chlorophenyl)acetamido)-1,2-dihydroxypropyl)-2-((2,18-dioxo-6,9,12,15,22,25-hexaoxa-3,19-diazaheptacosan-27-yl)oxy)-4-hydroxytetrahydro-2H-pyran-2-carboxylic acid], the Kd in assay [1], in assay [2] and in assay [3] was > 10000 nM each time.
On to `C#CCCOc1ccc(CO[C@]2(C(=O)O)C[C@H](O)[C@@H](NC(=O)CO)[C@H]([C@H](O)[C@H](O)CN)O2)cc1` [Compound 16, (2R,4S,5R,6R)-6-((1R,2R)-3-amino-1,2-dihydroxypropyl)-2-((4-(but-3-yn-1-yloxy)benzyl)oxy)-4-hydroxy-5-(2-hydroxyacetamido)tetrahydro-2H-pyran-2-carboxylic acid], for which the Kd in assay [1], in assay [2] and in assay [3] was > 10000 nM in each case.
In the case of `C#CCOCCNC(=O)NCCCCCCO[C@]1(C(=O)O)C[C@H](O)[C@@H](NC(=O)CO)[C@H]([C@H](O)[C@H](O)CNC(=O)Cc2ccc(Cl)cc2)O1` [Compound 218, (2R,4S,5R,6R)-6-((1R,2R)-3-(2-(4-chlorophenyl)acetamido)-1,2-dihydroxypropyl)-4-hydroxy-5-(2-hydroxyacetamido)-2-((6-(3-(2-(prop-2-yn-1-yloxy)ethyl)ureido)hexyl)oxy)tetrahydro-2H-pyran-2-carboxylic acid], the Kd in assay [1], in assay [2] and in assay [3] was < 1000 nM in each case.
On to `C#CCCOc1ccc(CO[C@]2(C(=O)O)C[C@H](O)[C@@H](NC(=O)CO)[C@H]([C@H](O)[C@H](O)CNC(=O)Cc3ccc4nn[nH]c4c3)O2)cc1` [Compound 9, (2R,4S,5R,6R)-6-((1R,2R)-3-(2-(1H-benzo[d][1,2,3]triazol-6-yl)acetamido)-1,2-dihydroxypropyl)-2-((4-(but-3-yn-1-yloxy)benzyl)oxy)-4-hydroxy-5-(2-hydroxyacetamido)tetrahydro-2H-pyran-2-carboxylic acid], for which the Kd in assay [1], in assay [2] and in assay [3] was 1000 to 10000 nM in each case.
As for `C#CCOP(=O)(O)OCCCCCCO[C@]1(C(=O)O)C[C@H](O)[C@@H](NC(=O)CO)[C@H]([C@H](O)[C@H](O)CNC(=O)Cc2ccc(Cl)cc2)O1` [Compound 105, (2R,4S,5R,6R)-6-((1R,2R)-3-(2-(4-chlorophenyl)acetamido)-1,2-dihydroxypropyl)-4-hydroxy-2-((6-((hydroxy(prop-2-yn-1-yloxy)phosphoryl)oxy)hexyl)oxy)-5-(2-hydroxyacetamido)tetrahydro-2H-pyran-2-carboxylic acid], the Kd in assay [1], in assay [2] and in assay [3] was < 1000 nM each time.
Consider `C#CCOCCOCCO[C@]1(C(=O)O)C[C@H](O)[C@@H](NC(=O)CO)[C@H]([C@H](O)[C@H](O)CNC(=O)Cc2ccc(OC)cc2)O1` [Compound 174, (2R,4S,5R,6R)-6-((1R,2R)-1,2-dihydroxy-3-(2-(4-methoxyphenyl)acetamido)propyl)-4-hydroxy-5-(2-hydroxyacetamido)-2-(2-(2-(prop-2-yn-1-yloxy)ethoxy)ethoxy)tetrahydro-2H-pyran-2-carboxylic acid], for which the Kd in assay [1], in assay [2] and in assay [3] was 1000 to 10000 nM in each case.
`CC(=O)NCCOCCOCCOCCOCCC(=O)NCCCCCCO[C@]1(C(=O)O)C[C@H](O)[C@@H](NC(C)=O)[C@H]([C@H](O)[C@H](O)CNC(=O)c2cccc(Cl)c2)O1` [Compound 271, (2R,4S,5R,6R)-5-acetamido-6-((1R,2R)-3-(3-chlorobenzamido)-1,2-dihydroxypropyl)-2-((2,18-dioxo-6,9,12,15-tetraoxa-3,19-diazapentacosan-25-yl)oxy)-4-hydroxytetrahydro-2H-pyran-2-carboxylic acid]: the results for the Kd in assay [1], in assay [2] and in assay [3] were > 10000 nM, 1000 to 10000 nM and 1000 to 10000 nM, respectively.
For the compound `CC(=O)NCCOCCOCCOCCOCCC(=O)NCCCCCCO[C@]1(C(=O)O)C[C@H](O)[C@@H](NC(=O)CO)[C@H]([C@H](O)[C@H](O)CNC(=O)Cc2ccc(Cl)cc2)O1` [Cpd. 244, (2R,4S,5R,6R)-6-((1R,2R)-3-(2-(4-chlorophenyl)acetamido)-1,2-dihydroxypropyl)-2-((2,18-dioxo-6,9,12,15-tetraoxa-3,19-diazapentacosan-25-yl)oxy)-4-hydroxy-5-(2-hydroxyacetamido) tetrahydro-2H-pyran-2-carboxylic acid], the Kd in assay [1], in assay [2] and in assay [3] was < 1000 nM in each case.
As to `O=C(Cc1ccc(Cl)cc1)NC[C@@H](O)[C@@H](O)[C@@H]1O[C@@](SCc2ccc(C(=O)O)cc2)(C(=O)O)C[C@H](O)[C@H]1NC(=O)CO` [Compound 195, (2S,4S,5R,6R)-2-((4-carboxybenzyl)thio)-6-((1R,2R)-3-(2-(4-chlorophenyl)acetamido)-1,2-dihydroxypropyl)-4-hydroxy-5-(2-hydroxyacetamido)tetrahydro-2H-pyran-2-carboxylic acid], the Kd in assay [1], in assay [2] and in assay [3] was < 1000 nM each time.
As for `CCCNC(=O)CCOCCOCCOCCn1cc(CCOc2ccc(CO[C@]3(C(=O)O)C[C@H](O)[C@@H](NC(N)=O)[C@H]([C@H](O)[C@H](O)CNC(=O)Cc4ccc(Cl)cc4)O3)cc2)nn1` [Compound 222, (2R,4S,5R,6R)-6-((1R,2R)-3-(2-(4-chlorophenyl)acetamido)-1,2-dihydroxypropyl)-4-hydroxy-2-((4-(2-(1-(12-oxo-3,6,9-trioxa-13-azahexadecyl)-1H-1,2,3-triazol-4-yl)ethoxy)benzyl)oxy)-5-ureidotetrahydro-2H-pyran-2-carboxylic acid], the Kd in assay [1], in assay [2] and in assay [3] was < 1000 nM throughout.
